Consider eight compounds from patent US20230271938A1, “BENZIMIDAZOLES FOR USE IN THE TREATMENT OF CANCER AND INFLAMMATORY DISEASES” (Capella Therapeutics, Inc., priority 2015, published 2023).

As a reminder, the GI50 is the concentration at which growth is held to half of that of the control. Low values mean more potent growth inhibition, high ones less potent growth inhibition.

Holding throughout (assay type): cell-based
In experiment [1] the test system is HCC827 human NSCLC adenocarcinoma cells (mutant ERBB1, deletion of E746-A759 in exon 19). As to the kind of experiment: Cell proliferation assay, HCC827. The following applies: for GI50: Homo sapiens, HCC827 cells, 72 hrs; for Ratio (Wild-type ERBB1/Mutant ERBB1) A431/HCC827: GI50 ratio A431/HCC827; for Ratio (Wild-type ERBB1/Mutant ERBB1) HEKn/HCC827: GI50 ratio HEKn/HCC827. As for the experimental part:
(§1) The biological activity of a test compound was determined using cell proliferation assays. The activity against wild-type ERBB 1 was determined using A431 human epidermoid carcinoma cells (ATCC) and human epidermal keratinocytes, neonatal, or HEKn cells (ATCC).
(§2) A431 cells were grown in DMEM (Invitrogen) supplemented with 10% FBS (Lonza), 1% penicillin-streptomycin, and 2 mM glutamine (Invitrogen). HEKn cells were grown in EPILIFE® (Invitrogen) supplemented with HKGS (Invitrogen). HCC827 and H1975 were cultured in RPMI1640 supplemented with 10% FBS (Lonza), 1% penicillin-streptomycin, and 2 mM glutamine (Invitrogen). Cells were maintained and propagated at 37° C. and 5% CO2 in a humidified cell culture incubator. Aliquots of cells from early passages were preserved for liquid nitrogen storage. Frozen vials of cells were thawed at 37° C. water bath. Cells were spun to remove freezing medium. The newly revived frozen cells were adapted in culture for 10 days before used for compound testing. Cells used in the assay were less than 20 subculture passages or 3 months in culture.
(§3) The test compounds were dissolved in dimethylsulfoxide (DMSO) and stored at -20° C. before testing. […] The cells were placed in a culture incubator overnight. Next day, test compounds in DMSO were added to the cells and placed back in the culture incubator for 72 hrs. In the meantime, the cell numbers at time zero of the compound treatment (T0) was measured by ENERCOUNT® (Codex BioSolutions). At the end of the compound treatment, the cell numbers were again measured by EnerCount as T72 values. The untreated controls (Ctrl) were cell numbers recorded from the 0.1% DMSO treatment. The percent growth inhibition by the test compound was calculated by the formula: (1- (T72-T0)/(Ctrl-T0)) x 100.
(§4) The results are summarized in Tables 1 and 2, wherein A represents a value no greater than 500 nM, B represents a value greater than 500 nM but no greater than 1 µM, C represents a value greater than 1 µM but no greater than 5 µM, and D represents a value greater than 5 µM; and wherein A′ represents a ratio of greater than 10, B′ represents a ratio of no greater than 10 but no less than 5, C′ represents a ratio of no greater than 5 but no less than 2, and D′ represents a ratio of no greater than 2.

For experiment [2], the system named is H1975 human NSCLC adenocarcinoma cells (drug-resistant mutant ERBB1, T790M in-cis with L858R). Briefly: Cell proliferation assay, H1975. The conditions noted are these: for GI50: Homo sapiens, NCI-H1975, H1975 cells, 72 hrs; for Ratio (Wild-type ERBB1/Mutant ERBB1) A431/H1975: GI50 ratio A431/H1975; for Ratio (Wild-type ERBB1/Mutant ERBB1) HEKn/H1975: GI50 ratio HEKn/H1975. As to the method:
as §1, §2, §3, §4

The test system of experiment [3] is human epidermal keratinocytes, neonatal, or HEKn cells (wild-type ERBB1). As to the kind of experiment: Cell proliferation assay, HEKn. The conditions noted are these: Keratinocyte, 72 hrs. As to the method:
as §1, §2, §3, §4

Experiment [4] has as its system A431 human epidermoid carcinoma cells (wild-type ERBB1). Briefly: Cell proliferation assay, A431. The conditions noted are these: A-431, 72 hrs. As to the method:
as §1, §2, §3, §4

The mark [5] stands for this setting: numeric values, reference compounds.

The structures appear in SMILES notation. Bounds are passed on as bounds.

Consider `C=CC(=O)N1CCCC[C@@H](n2c(NC(=O)c3ccnc(C)c3)nc3ccc4c(c32)OCCO4)C1` [Compound C1-A, (R)-N-(1-(1-acryloylazepan-3-yl)-7,8-dihydro-1H-[1,4]dioxino[2′,3′:3,4]benzo[1,2-d]imidazol-2-yl)-2-methylisonicotinamide], for which the GI50 in experiment [1] was less than 500 nM; in experiment [2], less than 500 nM; in experiment [3], 1000 to 5000 nM; in experiment [4], 1000 to 5000 nM.

Consider `C=CC(=O)N1CCCC[C@@H](n2c(NC(=O)c3ccnc(C)c3)nc3cc(OC(F)(F)F)cc(Cl)c32)C1` [Compound A4, (R)-N-(1-(1-Acryloylazepan-3-yl)-7-chloro-5-(trifluoromethoxy)-1H-benzo[d]imidazol-2-yl)-2-methylisonicotinamide], for which, in experiment [1], the “Ratio (Wild-type ERBB1/Mutant ERBB1) A431/HCC827” value is listed as “A′ (A′ represents a ratio of greater than 10)”, the “Ratio (Wild-type ERBB1/Mutant ERBB1) HEKn/HCC827” value is “A′ (A′ represents a ratio of greater than 10)” and the concentration for 50% growth inhibition (GI50) was less than 500 nM. Moreover, in experiment [2], the “Ratio (Wild-type ERBB1/Mutant ERBB1) A431/H1975” value is “C′ (C′ represents a ratio of no greater than 5 but no less than 2)”, the “Ratio (Wild-type ERBB1/Mutant ERBB1) HEKn/H1975” value was “C′ (C′ represents a ratio of no greater than 5 but no less than 2)” and the GI50 is less than 500 nM. This compound returned a GI50 in experiment [3] of 1000 to 5000 nM. In experiment [4], this compound gave a 50% growth inhibitory concentration (GI50) of 1000 to 5000 nM.

On to `C=CC(=O)N1CCCC[C@@H](n2c(NC(=O)c3ccnc(OC)c3)nc3ccc4c(c32)OCCO4)C1` [Compound C2-A, (R)-N-(1-(1-acryloylazepan-3-yl)-7,8-dihydro-1H-[1,4]dioxino[2′,3′:3,4]benzo[1,2-d]imidazol-2-yl)-2-methoxyisonicotinamide], for which the GI50 in experiment [1] was less than 500 nM; in experiment [2], less than 500 nM; in experiment [3] it was 1000 to 5000 nM; in experiment [4], 1000 to 5000 nM.

Consider `Cc1cc(C(=O)Nc2nc3cc(OC(F)(F)F)cc(Cl)c3n2[C@@H]2CCCCN(C(=O)/C=C/CN(C)C)C2)ccn1` [Compound A5, (R,E)-N-(7-Chloro-1-(1-(4-(dimethylamino)but-2-enoyl)azepan-3-yl)-5-(trifluoromethoxy)-1H-benzo[d]imidazol-2-yl)-2-methylisonicotinamide], for which, in experiment [1], the “Ratio (Wild-type ERBB1/Mutant ERBB1) A431/HCC827” value is given as “A′ (A′ represents a ratio of greater than 10)”, the “Ratio (Wild-type ERBB1/Mutant ERBB1) HEKn/HCC827” value was “A′ (A′ represents a ratio of greater than 10)” and the GI50 was less than 500 nM. For the same compound, in experiment [2], the “Ratio (Wild-type ERBB1/Mutant ERBB1) A431/H1975” value was “C′ (C′ represents a ratio of no greater than 5 but no less than 2)”, the “Ratio (Wild-type ERBB1/Mutant ERBB1) HEKn/H1975” value is “A′ (A′ represents a ratio of greater than 10)” and the GI50 was less than 500 nM. This compound gave a 50% growth inhibitory concentration (GI50) in experiment [3] of 1000 to 5000 nM. The same compound registered a GI50 in experiment [4] of 1000 to 5000 nM.

In the case of `C=CC(=O)N1CCC(Oc2cccc3nc(NC(=O)c4ccnc(C)c4)n([C@@H]4CCCCN(C(=O)C=C)C4)c23)CC1` [Compound A3, (R)-N-(1-(1-acryloylazepan-3-yl)-7-((1-acryloylpiperidin-4-yl)oxy)-1H-benzo[d]imidazol-2-yl)-2-methylisonicotinamide], in experiment [1], the “Ratio (Wild-type ERBB1/Mutant ERBB1) A431/HCC827” value is “A′ (A′ represents a ratio of greater than 10)”, the “Ratio (Wild-type ERBB1/Mutant ERBB1) HEKn/HCC827” value is reported as “A′ (A′ represents a ratio of greater than 10)” and the concentration for 50% growth inhibition (GI50) is less than 500 nM. Further, in experiment [2], the “Ratio (Wild-type ERBB1/Mutant ERBB1) A431/H1975” value is listed as “B′ (B′ represents a ratio of no greater than 10 but no less than 5)”, the “Ratio (Wild-type ERBB1/Mutant ERBB1) HEKn/H1975” value was “A′ (A′ represents a ratio of greater than 10)” and the 50% growth inhibitory concentration (GI50) is less than 500 nM. The same compound had a GI50 in experiment [3] of 1000 to 5000 nM. Also, the 50% growth inhibitory concentration (GI50) in experiment [4] is more than 5000 nM.

With `C=CC(=O)Nc1cccc(Nc2nc(Nc3ccc(N4CCN(C(C)=O)CC4)cc3OC)ncc2C(F)(F)F)c1` [CO-1686], the “Ratio (Wild-type ERBB1/Mutant ERBB1) HEKn/HCC827” value in experiment [1] is “A′ (A′ represents a ratio of greater than 10)”. The figures for the GI50 in experiment [1] (setting [5]) and in experiment [3] (setting [5]) were 32 nM and 2500 nM, respectively. Besides, the “Ratio (Wild-type ERBB1/Mutant ERBB1) HEKn/H1975” value in experiment [2] is on record as “A′ (A′ represents a ratio of greater than 10)”.

In the case of `C=CC(=O)N1CCCC[C@@H](n2c(NC(=O)c3ccnc(C)c3)nc3cccc(OC4CCN(CC)CC4)c32)C1` [Compound A1, (R)-N-(1-(1-Acryloylazepan-3-yl)-7-((1-ethylpiperidin-4-yl)oxy)-1H-benzo[d]imidazol-2-yl)-2-methylisonicotinamide], in experiment [1], the “Ratio (Wild-type ERBB1/Mutant ERBB1) A431/HCC827” value was “A′ (A′ represents a ratio of greater than 10)”, the “Ratio (Wild-type ERBB1/Mutant ERBB1) HEKn/HCC827” value is listed as “A′ (A′ represents a ratio of greater than 10)” and the 50% growth inhibitory concentration (GI50) was less than 500 nM. Moreover, in experiment [2], the “Ratio (Wild-type ERBB1/Mutant ERBB1) A431/H1975” value is listed as “A′ (A′ represents a ratio of greater than 10)”, the “Ratio (Wild-type ERBB1/Mutant ERBB1) HEKn/H1975” value is given as “A′ (A′ represents a ratio of greater than 10)” and the GI50 is less than 500 nM. This compound also registered a GI50 in experiment [3] of 1000 to 5000 nM. The compound also yielded a concentration for 50% growth inhibition (GI50) in experiment [4] of less than 500 nM.

As to `C=CC(=O)N1CCCC[C@@H](n2c(NC(=O)c3ccnc(C(F)(F)F)c3)nc3ccc4c(c32)OCCO4)C1` [Compound B1-A, (R)-N-(1-(1-acryloylazepan-3-yl)-7,8-dihydro-1H-[1,4]dioxino[2′,3′:3,4]benzo[1,2-d]imidazol-2-yl)-2-(trifluoromethyl)isonicotinamide], the GI50 in experiment [1] is less than 500 nM; in experiment [2], less than 500 nM; in experiment [3], more than 5000 nM; in experiment [4], 1000 to 5000 nM.
